From ChEMBL document CHEMBL3272111, “Synthesis of 2-benzyloxy and 2-benzylthio analogues of primaquine as potential antimalarials” (1977)
The source made the active and inactive calls. No cut-off for these calls is given here.

Tests used:
Plasmodium berghei [1] = assay: Antimalarial activity against Plasmodium berghei infected in mouse at 320 to 640 mg/kg; assay type: functional, organism-based
Plasmodium cynomolgi [2] = assay: Antimalarial activity against Plasmodium cynomolgi infected in monkey assessed as relapses day at 0.5 mg/kg, po; assay type: functional
Plasmodium cynomolgi [3] = assay: Antimalarial activity against Plasmodium cynomolgi infected in monkey assessed as relapses day at 10 mg/kg, po; assay type: functional
Plasmodium berghei [4] = assay: Antimalarial activity against Plasmodium berghei infected in mouse at 640 mg/kg; assay type: functional, organism-based; parameters: dose 640 mg/kg
Plasmodium cynomolgi [5] = assay: Antimalarial activity against Plasmodium cynomolgi infected in monkey assessed as relapses day at 0.25 mg/kg, po; assay type: functional
Plasmodium cynomolgi [6] = assay: Antimalarial activity against Plasmodium cynomolgi infected in monkey assessed as curative activity without disease relapses until 90 days at 1 mg/kg, po by radical curative monkey test; assay type: functional, organism-based; parameters: dose 1 mg/kg
Plasmodium cynomolgi [7] = assay: Antimalarial activity against Plasmodium cynomolgi infected in monkey assessed as relapses day at 1 mg/kg, po; assay type: functional
Plasmodium cynomolgi [8] = assay: Antimalarial activity against Plasmodium cynomolgi infected in monkey assessed as curative activity without disease relapses until 90 days at 0.75 mg/kg, po by radical curative monkey test; assay type: functional, organism-based; parameters: dose 0.75 mg/kg
Plasmodium cynomolgi [9] = assay: Antimalarial activity against Plasmodium cynomolgi infected in monkey assessed as relapses day at 0.375 mg/kg, po; assay type: functional
Plasmodium cynomolgi [10] = assay: Antimalarial activity against Plasmodium cynomolgi infected in monkey assessed as curative activity without disease relapses until 90 days at 0.375 mg/kg, po by radical curative monkey test; assay type: functional, organism-based; parameters: dose 0.375 mg/kg
Plasmodium cynomolgi [11] = assay: Antimalarial activity against Plasmodium cynomolgi infected in monkey assessed as curative activity without disease relapses until 90 days at 1.5 mg/kg, po by radical curative monkey test; assay type: functional, organism-based; parameters: dose 1.5 mg/kg

Row | SMILES | Time (Plasmodium cynomolgi [2]) | Activity (Plasmodium cynomolgi [6]) | Time (Plasmodium cynomolgi [7]) | other results
1 | COc1cc(NC(C)CCCN)c2nc(SCc3ccc(Cl)cc3)ccc2c1.O=C(O)/C=C\C(=O)O (stereo unspecified) | 7 days | – | – | Activity (Plasmodium berghei [1]): Active; Time (Plasmodium cynomolgi [3]): 7 days
2 | COc1cc(NC(C)CCCN)c2nc(OCc3ccc(F)cc3)ccc2c1.O=C(O)/C=C\C(=O)O (stereo unspecified) | 91 days | Active | – | Activity (Plasmodium berghei [4]): Active; Time (Plasmodium cynomolgi [5]): 5 days
3 | COc1cc(NC(C)CCCN)c2nc(OCc3cccc(C(F)(F)F)c3)ccc2c1.O=C(O)/C=C\C(=O)O (stereo unspecified) | 6 days | Active | 13 days | –
4 | COc1ccc(COc2ccc3cc(OC)cc(NC(C)CCCN)c3n2)cc1.O=C(O)/C=C\C(=O)O (stereo unspecified) | – | – | 7 days | Time (Plasmodium cynomolgi [3]): 18 days
5 | COc1cc(NC(C)CCCN)c2nc(SCc3ccccc3)ccc2c1.O=C(O)/C=C\C(=O)O (stereo unspecified) | 9 days | – | 15 days | –
6 | COc1cc(NC(C)CCCN)c2nc(OCc3ccc(C(F)(F)F)cc3)ccc2c1.O=C(O)/C=C\C(=O)O (stereo unspecified) | 5 days | Active | – | Time (Plasmodium cynomolgi [5]): 9 days
7 | COc1cc(NC(C)CCCN)c2nc(OCc3ccc(Cl)cc3Cl)ccc2c1.O=C(O)/C=C\C(=O)O (stereo unspecified) | 8 days | Active | – | Activity (Plasmodium berghei [4]): Active
8 | COc1cc(NC(C)CCCN)c2ncccc2c1.O=P(O)(O)O.O=P(O)(O)O (stereo unspecified) [PRIMAQUINE PHOSPHATE] | 11 days | – | – | Activity (Plasmodium cynomolgi [8]): Active; Time (Plasmodium cynomolgi [9]): 11 days; Activity (Plasmodium cynomolgi [10]): inactive
9 | COc1cc(NC(C)CCCN)c2nc(OCc3ccccc3)ccc2c1 (stereo unspecified) | – | – | – | Activity (Plasmodium cynomolgi [11]): Active
10 | COc1cc(NC(C)CCCN)c2nc(OCc3ccc(Cl)cc3)ccc2c1.O=C(O)/C=C\C(=O)O (stereo unspecified) | – | – | 9 days | –
